Assay results: US20180312473A1, “PHENAZINE DERIVATIVES AS ANTIMICROBIAL AGENTS” (priority 2015, published 2018)
In brackets after ≈: the same amount, converted by molar mass.

Legend:
[1] = tested on: MRSA BAA-1707 planktonic cells and biofilms; assay: Calgary Biofilm Device (CBD) assay, MBC/MBEC; conditions: Staphylococcus aureus, read-out: MRSA BAA-1707 MBC
[2] = tested on: MRSA BAA-44; assay: MIC assay (broth microdilution, CLSI); conditions: Staphylococcus aureus, read-out: MIC, MRSA BAA-44

Row | Compound | MBC [1] | MIC [2]
1 | Oc1ccc(I)c2nc3cc(Cl)c(Cl)cc3nc12 [Compound 12, 7,8-Dichloro-4-iodo-1-hydroxyphenazine] | 75 µM (≈ 29.3 µg/mL) | –
2 | Oc1c(Br)cc(I)c2nc3cc(Cl)c(Cl)cc3nc12 [Compound 14, 2-bromo-7,8-dichloro-4-iodo-1-hydroxyphenazine] | – | 3.13 µM (≈ 1.47 µg/mL)
